This data set is described as follows: clinical. Conditions: human, plasma.

Take `Cc1ccc(-c2cc(C(F)(F)F)nn2-c2ccc(S(N)(=O)=O)cc2)cc1` [celecoxib, Celecoxib]: the area under the curve (AUC) (commonly concentration integrated over time) runs as follows: (100 mg) 3400 ng·h/mL; (200 mg) 6800 ng·h/mL.

Source of the values: US20190030049A1, “Celocoxib Binding Antibodies and Uses Thereof” (Marina Biotech, Inc., priority 2016, published 2019).
